Like-named read-outs stand apart in the source and are kept apart here.
Key:
[1] = target: T1, NR2B subunit of the NMDA receptor (Rattus norvegicus, UniProt P35439+Q00960); test: Antagonistic activity at rat NMDA receptor NR2B subunit: inhibition of [3H]ifenprodil binding to rat forebrain membrane
T1 construct: The forebrain membrane specimen of male rats of an SD strain; from tissue; host or cells: rat (SD strain, male) forebrain membranes
Experimental: Antagonistic Activity at Rat NMDA Receptor NR2B Subunit
The forebrain membrane specimen of male rats of an SD strain (final concentration: 250 μg protein/mL), [^3H]-ifenprodil [diluted with an HEPES buffer (20 mmol/L HEPES-KOH and 100 μmol/L trifluoroperazine (pH 7.4)) to give the final concentration of 4 nmol/L] and a test compound (each being diluted with an HEPES buffer to give the final concentration of […]) were mixed, and incubated at 25° C. for 90 minutes shading from light. The above-incubated membrane was recovered to a G/F-B filter using a cell harvester (Brandel; M-24) to stop the reaction. The resulting membrane was further washed with an HEPES buffer for three times, and radioactivity on the filter was measured (Beckman LS 6500). The antagonistic activity of the test compound for an NMDA receptor NR2B subunit was calculated by the following formula as an inhibiting rate for binding of [^3H]ifenprodil to the NR2B subunit of the NMDA receptor. The result is shown in Table 6 in terms of the concentration (IC50 value) of the test compound for 50% inhibition of binding of [^3H]ifenprodil to the NR2B subunit of the NMDA receptor. [formula] Non-specific binding amount: Binding amount of [^3H]ifenprodil in the presence of 10 μmol/L of ifenprodil Total binding amount: Binding amount of [^3H]ifenprodil in the absence of the test compound
Binding amount in the present of test compound: Binding amount of [^3H]ifenprodil in the presence of the test compound in each concentration

[2] = test system: strangulated nerve-damaged rats; test: Suppressive effect on neurogenic pain (allodynia, von Frey pain threshold) in strangulated nerve-damaged rats; type: in vivo, rat; settings: male SD rats, orally administered at the dose of 5 and 10 mg/kg, measured 1, 3 and 5 hours after administration
Experimental: Suppressive Effect of the Compound to Neurogenic Pain in Strangulated Nerve-damaged Rats
The test was carried out in accordance with a method by G. M. Pitcher, et al. [Pain, 1999,. vol. 83, pages 37 to 46] which is an improvement of a method by T. Mosconi and K. Kruger [Pain, 1996, vol. 64, pages 37 to 57].
Using male rats of an SD strain (Sprague-Dawley rats), strangulated nerve-damaged rats were prepared by removing sciatic nerve under anesthetizing with pentobarbital, and covering with a PE-60 polyethylene tube (trade name: Intramedic; size: PE-60; manufactured by Becton Dickinson) having a length of 2 mm over the removed area. After 14 to 21 days from the preparation, the following test was carried out. Incidentally, a pain threshold (g) was calculated by the following method, and the rats (strangulated rat-damaged rats) showing less than 4 g of a 50% pain threshold were used for the test in which one group comprised six rats. […]
For the measurement of allodynia which is characteristically noted in neurogenic pain, a von Frey filament (trade name: touch test sensory evaluator; catalog number: model 58011) was used and the result is expressed as a pain threshold (g). The pain threshold (g) was calculated by the up-down method by W. J. Dixon [Annual Review of Pharmacology and Toxicology, 1980, vol. […]

[3] = forebrain membrane of male SD rats, 4 nmol/L [3H]-ifenprodil, 25° C., 90 minutes, read-out: IC50, concentration for 50% inhibition of binding of [3H]ifenprodil to the NR2B subunit of the NMDA receptor

T1 sequence (Q00960 27-1482, other chains not shown): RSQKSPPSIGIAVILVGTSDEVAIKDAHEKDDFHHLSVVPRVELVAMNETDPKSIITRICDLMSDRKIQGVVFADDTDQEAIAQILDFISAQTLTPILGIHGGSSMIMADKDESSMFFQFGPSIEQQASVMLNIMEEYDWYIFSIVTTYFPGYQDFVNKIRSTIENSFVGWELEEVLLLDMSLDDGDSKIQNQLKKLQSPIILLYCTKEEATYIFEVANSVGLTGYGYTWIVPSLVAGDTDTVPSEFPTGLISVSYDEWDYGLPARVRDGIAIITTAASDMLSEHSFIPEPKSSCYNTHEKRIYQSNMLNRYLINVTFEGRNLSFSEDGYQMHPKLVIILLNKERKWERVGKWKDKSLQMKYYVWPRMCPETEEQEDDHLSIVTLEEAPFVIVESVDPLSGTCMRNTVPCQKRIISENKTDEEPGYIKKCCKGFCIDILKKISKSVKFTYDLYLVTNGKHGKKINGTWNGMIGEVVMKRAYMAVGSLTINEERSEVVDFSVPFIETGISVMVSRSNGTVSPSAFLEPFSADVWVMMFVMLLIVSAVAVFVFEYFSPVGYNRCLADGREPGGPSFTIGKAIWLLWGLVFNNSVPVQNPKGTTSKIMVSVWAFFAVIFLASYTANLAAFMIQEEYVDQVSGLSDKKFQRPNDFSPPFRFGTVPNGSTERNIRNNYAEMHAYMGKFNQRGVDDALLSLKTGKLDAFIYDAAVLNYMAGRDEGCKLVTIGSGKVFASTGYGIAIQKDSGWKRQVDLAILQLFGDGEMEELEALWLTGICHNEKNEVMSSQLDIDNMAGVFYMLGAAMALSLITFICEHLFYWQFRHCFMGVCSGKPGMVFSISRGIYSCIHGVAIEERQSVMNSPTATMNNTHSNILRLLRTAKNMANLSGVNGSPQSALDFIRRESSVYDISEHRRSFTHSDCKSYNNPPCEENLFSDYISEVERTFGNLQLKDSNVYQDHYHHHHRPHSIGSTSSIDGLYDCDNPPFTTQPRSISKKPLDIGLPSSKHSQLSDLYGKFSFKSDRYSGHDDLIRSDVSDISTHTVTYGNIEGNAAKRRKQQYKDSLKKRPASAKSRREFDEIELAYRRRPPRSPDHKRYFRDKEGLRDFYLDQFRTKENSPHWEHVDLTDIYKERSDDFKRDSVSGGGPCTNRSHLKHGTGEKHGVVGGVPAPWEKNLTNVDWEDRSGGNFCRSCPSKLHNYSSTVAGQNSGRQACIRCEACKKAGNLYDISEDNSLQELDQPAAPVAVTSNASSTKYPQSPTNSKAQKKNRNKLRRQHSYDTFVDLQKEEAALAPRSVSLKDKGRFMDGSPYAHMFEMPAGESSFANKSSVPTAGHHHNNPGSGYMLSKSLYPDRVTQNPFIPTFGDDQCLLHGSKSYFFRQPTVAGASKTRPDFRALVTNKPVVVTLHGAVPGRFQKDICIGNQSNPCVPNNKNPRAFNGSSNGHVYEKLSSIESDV

Row | IC50 [1, 3] [nM] | Compound | improvement of allodynia (pain threshold, von Frey filament) versus Solvent treated group [2] | IC50 [1] [nM]
1 | 5.5 | CC(C(O)c1ccc2c(c1)CCC(=O)N2)N1CCC(O)(c2cccs2)CC1 (racemic) [Compound 7, (±)-erythro-6-{1-Hydroxy-2-[4-hydroxy-4-(thiophene-2-yl)piperidino]propyl}-3,4-dihydroquinolin-2(1H)-one] |  | 
2 | 5.2 | O=C1CCc2cc(C(O)CN3CCC(O)(c4cccs4)CC3)ccc2N1 (centres unmarked) [Compound 10] | significantly improved | 
3 |  | CC(C(O)c1ccc2[nH]c(=O)sc2c1)N1CCC(O)(c2cccs2)CC1 (racemic) [Compound 2, (±)-erythro-6-{1-hydroxy-2-[4-hydroxy-4-thiophenee-2-yl)piperidino]propyl}benzothiazol-2(3H)-one] |  | 4.1
4 | 4.6 | CC(C(O)c1ccc2c(c1)CCC(=O)N2)N1CCC(O)(c2cccs2)CC1 (racemic) [Compound 6, (±)-threo-6-{1-Hydroxy-2-[4-hydroxy-4-(thiophene-2-yl)piperidino]propyl}-3,4-dihydroquinolin-2(1H)-one] | significantly improved | 
5 |  | CC(C(O)c1ccc2[nH]c(=O)sc2c1)N1CCC(O)(c2cccs2)CC1 (racemic) [Compound 1, (±)-threo-6-{1-Hydroxy-2-[4-hydroxy-4-(thiophenee-2-yl)piperidino]propyl}benzothiazol-2(3H)-one] |  | 2
6 |  | O=c1[nH]c2ccc(C(O)CN3CCC(O)(c4cccs4)CC3)cc2s1 (centres unmarked) [Compound 5, 6-{1-Hydroxy-2-[4-hydroxy-4-(thiophene-2-yl)-piperidino]ethyl}benzothiazol-2(3H)-one] |  | 2.9

Source: patent US20070185168A1, “Piperidine derivatives” (priority 2004, published 2007)
